Measured values taken from patent publication US8778966B2, “Quinolinone derivatives as PARP and tank inhibitors” (Janssen Pharmaceutica, NV, priority 2007, dated 2014).

How the values were obtained:
[1] = tested on: HCT116 cells; experiment: Mitotic arrest assay on HCT116 cells (phospho-histone H3 Ser10); type: cell-based, human; details: Homo sapiens, HCT-116, HCT116 cells; lowest active dose; read-out: Mitotic arrest HCT116 LAD (converted)
In short: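 Read-out is imaging of phospho-histone H3 Ser10 (Alexa Fluor 488) with Hoechst nuclear counting, after 6 h compound exposure at 37 °C, DMSO ≤0.1%. LAD is the lowest dose at which the blank-corrected value over SD exceeds 5; triplicates, low-count wells excluded.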

[2] = tested on: tubulin; experiment: Tubulin polymerization assay; type: biochemical; design: key: a compound showing 0 to 50% inhibition at 20 μM is reported as score 1; Score 2 compounds are defined as compound showing more than 50% inhibition at 20 μM and less than 50% inhibition at 5 μM; a compound showing more than 50% inhibition at 5 μM is reported as score 3; details: tested at 20 μM and 5 μM
In short: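 Cytoskeleton kit tubulin was run in a 10 µl final volume at 37 °C, with fluorescence read every minute for 1 h. Polymerization was taken as the maximum slope (4-point linear regression) and expressed as % of no-compound control. Compounds were tested at 20 µM, then at 5 µM if inhibition exceeded 50%, and scored by % inhibition.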

[3] = tested on: PC3 cells; experiment: EB1 Comet (microtubule disruption) assay; type: cell-based, human; details: Homo sapiens, PC-3, 1 h, 1 hour treatment, read-out: EB1 pLAC (converted)
In short: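 Readout is loss of Eb1 plus-end foci, scored by immunofluorescence microscopy, in PC3 cells after 1 h compound treatment at 37 °C with 0.6% final DMSO. LAC is defined as the lowest concentration leaving at least 50% of cells without Eb1 foci.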

| SMILES | minimal effective concentration [1] | tubulin polymerisation score [2] | minimal effective concentration [3] |
| --- | --- | --- | --- |
| CCc1cc2c(OC)cc(C(C)(C#N)Cc3nc(OC)cc(OC)n3)cc2[nH]c1=O (single isomer, unassigned) [Compound 230] | 1 µM | 1 (a compound showing 0 to 50% inhibition at 20 μM is reported as score 1) | 1 µM |
| CCc1cc2ccc([C@@](C)(C#N)CCOc3ccc(C#N)cc3)cc2[nH]c1=O (single isomer, unassigned) [Compound 273] | 0.1 µM | 2 | 0.1 µM |
| CCc1cc2ccc([C@](C)(C#N)CCOc3ccc(C#N)cc3)cc2[nH]c1=O (single isomer, unassigned) [Compound 275] | 10 µM | – | – |
| CCc1cc2ccc([C@](C)(C#N)Cc3cccc(/C=C/S(C)(=O)=O)c3)cc2[nH]c1=O (single isomer, unassigned) [Compound 291] | 0.1 µM | 2 | – |
| CCc1cc2ccc([C@@](C)(C#N)Cc3cccc(C#CCO)c3)cc2[nH]c1=O (single isomer, unassigned) [Compound 295] | 10 µM | 1 (a compound showing 0 to 50% inhibition at 20 μM is reported as score 1) | – |
| CCc1cc2ccc([C@](C)(C#N)Cc3cccc(C#CCO)c3)cc2[nH]c1=O (single isomer, unassigned) [Compound 296] | 0.1 µM | 2 | – |
| CCc1cc2ccc([C@@](C)(C#N)Cc3cc(OC)nc(C)n3)cc2[nH]c1=O (single isomer, unassigned) [Compound 361] | 10 µM | 1 (a compound showing 0 to 50% inhibition at 20 μM is reported as score 1) | – |
| CCc1cc2ccc([C@](C)(C#N)Cc3cc(OC)nc(C)n3)cc2[nH]c1=O (single isomer, unassigned) [Compound 362] | 0.3 µM | 2 | – |
| Cc1cc2ccc([C@@](C)(C#N)C3CCc4ccccc43)cc2[nH]c1=O (single isomer, unassigned) [Compound 385] | 10 µM | – | 10 µM |
| Cc1cc2ccc([C@](C)(C#N)C3CCc4ccccc43)cc2[nH]c1=O (single isomer, unassigned) [Compound 386] | 0.1 µM | 2 | 0.316 µM |
| Cc1cc2ccc(C(C)(C#N)Cc3cccc(C=Cc4ccccc4)c3)cc2[nH]c1=O (stereo not drawn) [Compound 179] | 1 µM | – | 1.78 µM |
| CCc1cc2ccc(C(C)(C#N)Cc3cccc(C(=N)NO)c3)cc2[nH]c1=O (stereo not drawn) [Compound 186] | 3 µM | – | 3.16 µM |
| Cc1cc2ccc(C(C)(C#N)Cc3cccc(Oc4ccc(F)cc4)c3)cc2[nH]c1=O (stereo not drawn) [Compound 192] | 0.3 µM | – | 1 µM |
| Cc1nc(-c2ccccc2)sc1CC(C)(C#N)c1ccc2cc(C)c(=O)[nH]c2c1 (stereo not drawn) [Compound 235] | 0.3 µM | 1 (a compound showing 0 to 50% inhibition at 20 μM is reported as score 1) | – |
| CCc1cc2ccc(C(C)(C#N)Cc3cccc(C(=O)OC(C)C)c3)cc2[nH]c1=O (stereo not drawn) [Compound 255] | 0.1 µM | 2 | – |
| Cc1cc2ccc(C(C)(C#N)Cc3cccc(I)c3)cc2[nH]c1=O (stereo not drawn) [Compound 256] | 0.1 µM | – | 0.316 µM |
| CCc1cc2ccc(C(C)(C#N)Cc3cccc(NC)c3)cc2[nH]c1=O (stereo not drawn) [Compound 257] | 0.3 µM | – | 0.316 µM |
| CCc1cc2ccc(C(C)(C#N)Cc3cc(Br)cc(N(C)C)c3)cc2[nH]c1=O (stereo not drawn) [Compound 260] | 0.1 µM | 2 | – |
| Cc1cc2ccc(C(C)(C#N)Cc3cccc(OCC4CCOCC4)c3)cc2[nH]c1=O (stereo not drawn) [Compound 261] | 1 µM | – | 1.78 µM |
| CCc1cc2ccc(C(C)(C#N)Cc3cc(F)ccc3F)cc2[nH]c1=O (stereo not drawn) [Compound 280] | 0.3 µM | – | 1 µM |
| CCc1cc2ccc(C(C)(C#N)Cc3ccc(F)c(F)c3)cc2[nH]c1=O (stereo not drawn) [Compound 281] | 1 µM | – | 0.316 µM |
| CCc1cc2ccc(C(C)(C#N)Cc3cc(C(F)(F)F)ccc3F)cc2[nH]c1=O (stereo not drawn) [Compound 283] | 0.3 µM | – | 1 µM |
| CCOc1cccc(CC(C)(C#N)c2ccc3cc(CC)c(=O)[nH]c3c2)c1 (stereo not drawn) [Compound 285] | 0.3 µM | 2 | 0.316 µM |
| CCc1cc2ccc(C(C)(C#N)Cc3cccc(OC)c3F)cc2[nH]c1=O (stereo not drawn) [Compound 286] | 1 µM | – | 0.562 µM |
| CCc1cc2ccc(C(C)(C#N)Cc3cc(C(C)C)ccc3OC)cc2[nH]c1=O (stereo not drawn) [Compound 288] | 1 µM | – | – |

| SMILES | minimal effective concentration [1] | tubulin polymerisation score [2] | minimal effective concentration [3] |
| --- | --- | --- | --- |
| CCc1cc2ccc(C(C)(C#N)Cc3cc(OC)c(OC)c(OC)c3)cc2[nH]c1=O (stereo not drawn) [Compound 289] | 0.1 µM | 2 | 0.0316 µM |
| CCc1cc2ccc(C(C)(C#N)Cc3cccc(/C=N/O)c3)cc2[nH]c1=O (stereo not drawn) [Compound 299] | – | – | 1 µM |
| CCc1cc2ccc(C(C)(C#N)CN(C)Cc3ccc(C#N)cc3)cc2[nH]c1=O (stereo not drawn) [Compound 300] | 0.3 µM | 1 (a compound showing 0 to 50% inhibition at 20 μM is reported as score 1) | 0.1 µM |
| CCc1cc2ccc(C(C)(C#N)CNCc3ccc(C#N)cc3)cc2[nH]c1=O (stereo not drawn) [Compound 302] | 1 µM | – | 1 µM |
| Cc1cc2ccc(C(C)(C#N)Cc3cccc(Oc4ccccc4)c3)cc2[nH]c1=O (stereo not drawn) [Compound 305] | 0.3 µM | – | 3.16 µM |
| CCc1cc2ccc(C(C)(C#N)Cc3cc(C#N)nc(OC)c3)cc2[nH]c1=O (stereo not drawn) [Compound 314] | – | 1 (a compound showing 0 to 50% inhibition at 20 μM is reported as score 1) | 1 µM |
| CCc1cc2ccc(C(C)(C#N)Cc3cc(N(C)C)nc(C#N)n3)cc2[nH]c1=O (stereo not drawn) [Compound 317] | 1 µM | – | 1 µM |
| CCc1cc2ccc(C(C)(C#N)Cc3cc(N(C)C)nc(N(C)C)n3)cc2[nH]c1=O (stereo not drawn) [Compound 320] | 0.3 µM | – | 0.316 µM |
| CCc1cc2ccc(C(C)(C#N)Cc3cc(N(C)C)nc(C)n3)cc2[nH]c1=O (stereo not drawn) [Compound 322] | 1 µM | – | 1 µM |
| CCc1cc2ccc(C(C)(C#N)Cc3cc(Cl)nc(N(C)C)c3)cc2[nH]c1=O (stereo not drawn) [Compound 323] | 0.3 µM | 2 | – |
| CCc1cc2ccc(C(C)(C#N)Cc3cc(C#N)nc(N(C)C)c3)cc2[nH]c1=O (stereo not drawn) [Compound 325] | – | – | 3.16 µM |
| CCc1cc2ccc(C(C)(C#N)Cc3cccc(NC)n3)cc2[nH]c1=O (stereo not drawn) [Compound 339] | 1 µM | 2 | – |
| CCc1cc2ccc(C(C)(C#N)Cc3ccc4c(c3)OC(F)(F)O4)cc2[nH]c1=O (stereo not drawn) [Compound 346] | 1 µM | – | – |
| CCc1cc2ccc(C(C)(C#N)Cc3c4ccccc4nn3C)cc2[nH]c1=O (stereo not drawn) [Compound 347] | – | – | 0.562 µM |
| CCc1cc2ccc(C(C)(C#N)Cc3cc(OC)nc(OC)c3)cc2[nH]c1=O (stereo not drawn) [Compound 350] | – | 2 | 1 µM |
| CCc1cc2ccc(C(C)(C#N)Cc3cc(Cl)nc(OC)c3)cc2[nH]c1=O (stereo not drawn) [Compound 351] | 0.1 µM | – | 0.1 µM |
| CCc1cc2ccc(C(C)(C#N)Cc3cc(N(C)C)nc(OC)n3)cc2[nH]c1=O (stereo not drawn) [Compound 354] | 1 µM | – | 1 µM |
| CCc1cc2ccc(C(C)(C#N)Cc3nc(OC)cc(N(C)C)n3)cc2[nH]c1=O (stereo not drawn) [Compound 355] | 0.1 µM | 2 | – |
| CCc1cc2ccc(C(C)(C#N)Cc3cc(Cl)nc(C)n3)cc2[nH]c1=O (stereo not drawn) [Compound 365] | 0.3 µM | – | 0.316 µM |
| CCc1cc2ccc(C(C)(C#N)Cc3cc(Br)cc4c3OCC4)cc2[nH]c1=O (stereo not drawn) [Compound 378] | 0.1 µM | – | 0.316 µM |
| CCc1cc2ccc(C(C)(C#N)Cc3cccc4[nH]ccc34)cc2[nH]c1=O (stereo not drawn) [Compound 379] | 0.3 µM | 2 | – |
| Cc1cc2ccc([C@](C)(C#N)[C@H]3CCc4ccccc43)cc2[nH]c1=O [Compound 387] | 3 µM | – | 3.16 µM |
| Cc1cc2ccc(C(C)(C#N)C3CCc4ccccc43)cc2[nH]c1=O (stereo not drawn) [Compound 392] | 0.3 µM | – | 0.316 µM |
| Cc1cc2ccc(C(C)(C#N)C3CCCc4ccccc43)cc2[nH]c1=O (stereo not drawn) [Compound 404] | 1 µM | – | 0.562 µM |
| Cc1cc2ccc(C(C)(C#N)Cc3cccc(/C=C/CCO)c3)cc2[nH]c1=O (stereo not drawn) [Compound 409] | 0.3 µM | – | – |
